Assay results: ChEMBL document CHEMBL3637782, “GSK Tres Cantos Follow-up TB Screening Data” (2016)
In brackets after ≈: the same amount, converted by molar mass.

Columns and labels:
HepG2 = test: GSK_TB: The cytotoxicity against HepG2 cells expressed as IC50; type: functional, cell-based; conditions: Homo sapiens
[1] = GSK_TB: Lipophilicity, log D of the compound at pH 7.4 by ChromlogD analysis; type: physicochemical; conditions: buffer
[2] = GSK_TB: Kinetic solubility of the compound in phosphate buffered saline at pH 7.4 after 1 hr by CLND method; type: physicochemical
[3] = tested on: Mycobacterium tuberculosis H37Rv; test: GSK_TB: Inhibition of the intracellular growth of Mycobacterium tuberculosis (pXC50); type: functional, ATCC25618
[4] = tested on: Mycobacterium tuberculosis H37Rv; test: GSK_TB: Minimum inhibitory concentration against H37Rv stain of Mycobacterium tuberculosis using MABA method; type: functional; conditions: ATCC25618
[5] = tested on: Mycobacterium tuberculosis H37Rv; test: GSK_TB: Growth inhibition of non-replicating Mycobacterium tuberculosis (pXC50); type: functional, ATCC25618
[6] = GSK_TB: AVG_CHROM_LOGP; type: physicochemical

Row | SMILES | IC50 (HepG2) [µM] | Lipophilicity [1] | solubility kinetic at 1 h [2] [µg/mL] | pXC50 [3] | MIC [4] [µM] | pXC50 [5] | Lipophilicity [6]
1 | Nc1ccccc1Nc1ccc(Cl)cc1 | 79 | 5.76 | 59 (≈ 270 µM) | 7.8 | 2 (≈ 0.437 µg/mL) | 4.5 | 5.9114
2 | FC(F)(F)c1nnc2ccc(Sc3nnc(-c4ccco4)o3)nn12 | 32 | 3.78 | 125 (≈ 353 µM) | 5.4 | 5.6 (≈ 1.98 µg/mL) | 4.5 | 3.8715
3 | N#Cc1cc(C(F)(F)F)c2nc(C(=O)NCc3cccs3)c(Cl)n2c1 | > 100 | 5.21 | 72 (≈ 187 µM) | 6.1 | 10 (≈ 3.85 µg/mL) | 5.2 | 5.4382
4 | COc1ccc2nccc(NC(=O)C3CCN(CCc4ccc(Cl)cc4)CC3)c2n1 | > 100 | 5.49 | 4 (≈ 9.41 µM) | 6.6 | 0.2 (≈ 0.085 µg/mL) | 5.1 | 
5 | CN(Cc1ccc(Cl)cc1)C(=O)CCc1nc2ccccc2oc1=O | > 100 | 5.86 | 127 (≈ 356 µM) | <4.3 | 3.9 (≈ 1.39 µg/mL) | 4.9 | 6.0093
6 | COc1ccc(CN2CCN(C(=O)/C=C/c3csc(C)n3)CC2)cc1 | 80 | 4.13 | ≥ 116 | 5.7 | 10 (≈ 3.57 µg/mL) |  | 4.1653
7 | O=C(NCc1ccco1)N1CCN(Cc2ccc(Cl)s2)CC1 | > 100 | 4.82 | 98 (≈ 288 µM) | 5.6 | 2 (≈ 0.68 µg/mL) |  | 4.8996
